# According to US10620214B2, “Chloroalkane penetration method for quantifying access of a molecule into a cell” (TRUSTEES OF TUFTS COLLEGE, priority 2016, dated 2020):
# Test system: HaloEnzyme-GFP-expressing HeLa cell line
# Assay: Chloroalkane Penetration Assay (CAPA), cytosolic access
# Type: cell-based
# Text: FIG. 1A provides a schematic showing the experimental procedure of CAPA, which uses a HaloEnzyme-GFP-expressing HeLa cell line. […] For CAPA, cells are pre-treated with vehicle or peptide, washed, and chased with HTag-TAMRA. Cells treated with cell-penetrant molecules have had their HaloEnzyme blocked, thus preventing the HTag-TAMRA from covalently labeling the cells. In this schematic, the molecule of interest is a peptide.
# FIG. 1C provides a graph showing the dose-dependent response curve of HTag-TAMRA signal after pre-incubation with different concentrations of HTag-cTMP, HTag-DD5o, and the negatively charged, linear variant HTag-DD5-neg. Data was normalized using the values obtained for vehicle (0% HTag-TAMRA signal inhibition) and for vehicle with no HTag-TAMRA added (100% signal inhibition). Points are means from three independent experiments and error bars show standard deviation.
# The CAPA method uses a cell line that stably expresses a cytosolically-oriented protein as a fusion with GFP and Haloenzyme. Haloenzyme is a modified bacterial chloroalkane dehalogenase that covalently labels itself with the small, otherwise inert Haloligand functional group. If an exogenously added molecule bearing the Haloligand (a small chloroalkane) reaches the cytosol, it reacts exclusively with the Haloenzyme and blocks its active site. Following this incubation period, the amount of unreacted Haloenzyme was measured by chasing with a Haloligand-bearing dye (here, Htag-TAMRA). The relative amount of red cellular fluorescence after this chase was then quantified by flow cytometry. The red signal reported directly on the amount of free Haloenzyme, which is inversely proportional to the degree to which the added molecule accessed the cytoplasm during the incubation period.
# Halo-GFP-Mitochondrial targeted (Mito.)+mCherry-dihydrofolate reductase (DHFR) HeLa cells were obtained from the Chenoweth Lab as described by (Ballister et al., Nat. Commun. 2014. 5, 1-9), which is incorporated herein by reference. The expression vector used for the incorporation of GFP-Haloenzyme is shown at FIG. 3. Cells were cultured using DMEM+10% FBS+1% Pen/Strep+1 μg/mL puromycin. For experiments, cells were seeded in a 24-well plate the day before at 1.0×10^5 cells/well. Materials for cell culture were purchased from Thermo Scientific.
# Cells were rinsed 1× with PBS, then treated with peptides in acidified Opti-MEM (0.15% 6N HCl) for 4 hours. Media was aspirated and cells were washed for 30 min with phenol red-free DMEM+10% FBS+1% pen/strep. Cells were chased with 5 μM HTag-TAMRA (Promega) in phenol red-free DMEM+10% FBS+1% pen/strep for 30 min. Cells were washed for 15 min with phenol red-free DMEM+10% FBS+1% pen/strep. Cells were rinsed once with phosphate buffered saline (PBS), then trypsinized and transferred to 1.5 mL Eppendorf tubes. Cells were pelleted and washed twice with PBS. Cell pellet was resuspended in 250 μL of PBS and 200 μL were transferred to 96-well plate for flow cytometry analysis. Data was gated for live cells measuring 10,000 cells per sample. Mean fluorescence intensity was obtained in the Yellow channel for HTag-TAMRA, and data was normalized. Background yellow fluorescence was observed both by flow cytometry and microscopy due to the constituent expression of mCherry-DHFR, but the signal observed for HTag-TAMRA-treated cells was 10-fold higher than background.
# [1] = 50 μM inhibitor for 1 hr, then biomolecule 4 hr at 37° C., FIG. 5D
effect of chlorpromazine on cytosolic penetration [1],time course of cytosolic penetration (FIG. 5A),Structure (SMILES),cytosolic penetration at 37° C. versus 4° C.,effect of EIPA on cytosolic penetration [1]
–,–,N=C(N)NCCC[C@H](NC(=O)[C@H](CCCNC(=N)N)NC(=O)[C@H](CCCNC(=N)N)NC(=O)[C@H](CCCNC(=N)N)NC(=O)[C@H](CCCNC(=N)N)NC(=O)[C@H](CCCNC(=N)N)NC(=O)[C@H](CCCNC(=N)N)NC(=O)[C@H](CCCNC(=N)N)NC(=O)[C@H](CCCNC(=N)N)NC(=O)CCC(=O)NCCOCCOCCCCCCCl)C(N)=O [Arg9],significantly greater at 37 °C compared to 4 °C,no significant reduction in cytosolic penetration
no effect,time-dependent cytosolic penetration,N[C@@H](Cc1c[nH]c2ccccc12)C(=O)O [Trp],–,no significant reduction in cytosolic penetration
